According to ChEMBL document CHEMBL6182926, “Design, Synthesis, and Biological Activity Evaluation of Deuterated Diphenyl Azole Alcohol-Based CYP51 Inhibitors” (J Med Chem, 2025):
In brackets after ≈: the same amount, converted by molar mass. Activity calls are given as the source filed them. The rule behind the calls is not given here.

Columns and labels:
Cryptococcus neoformans [1] = assay: Antifungal activity against Cryptococcus neoformans CGMCC 2.3161 assessed as reduction in other sterol at 8 ug/ml measured after 18 hrs incubation by gas chromatography-mass spectrometry (GCMS) analysis (reference value: 2.20%); assay type: functional; design: scale not given: the % may be the effect or the level left; settings: dose 8 µg/ml
Candida albicans [2] = assay: Antifungal activity against Candida albicans SC 5314 assessed as inhibition of visible growth; assay type: functional
Pichia kudriavzevii [3] = assay: Antifungal activity against Candida krusei AS 2.1045 assessed as inhibition of visible growth; assay type: functional
Cryptococcus neoformans [4] = assay: Fungicidal activity against Cryptococcus neoformans CGMCC 2.3161 assessed as concentration of colonies (< 5) measured after 48 hrs incubation; assay type: functional
Candida albicans [5] = assay: Antifungal activity against Candida albicans SC5314 assessed as reduction in 14alpha-methylsterols at 4 ug/ml measured after 18 hrs incubation by gas chromatography-mass spectrometry (GCMS) analysis (reference value: 0.69%); assay type: functional; design: scale not given: the % may be the effect or the level left; settings: dose 4 µg/ml
[6] = Cytotoxicity against human HUVEC cells measured after 72 hrs by MTT assay; assay type: toxicity, cell-based
Candida albicans [7] = assay: Antifungal activity against Candida albicans SC5314 assessed as reduction in Obtusifoliol at 4 ug/ml measured after 18 hrs incubation by gas chromatography-mass spectrometry (GCMS) analysis; assay type: functional; design: scale not given: the % may be the effect or the level left; settings: dose 4 µg/ml
Candida albicans [8] = assay: Antifungal activity against Candida albicans SC5314 assessed as reduction in ergosterol at 4 ug/ml measured after 18 hrs incubation by gas chromatography-mass spectrometry (GCMS) analysis (reference value: 96.72%); assay type: functional; design: scale not given: the % may be the effect or the level left; settings: dose 4 µg/ml
Nakaseomyces glabratus [9] = assay: Inhibition of biofilm formation in clinical isolate Candida glabrata assessed as inhibition of metabolic activity of biofilm measured after 24 hrs by XTT assay; assay type: functional
Cryptococcus neoformans [10] = assay: Inhibition of biofilm formation in Cryptococcus neoformans CGMCC 2.3161 assessed as inhibition of metabolic activity of biofilm measured after 24 hrs by XTT assay; assay type: functional
Candida albicans [11] = assay: Antifungal activity against Candida albicans SC5314 assessed as reduction in other sterol at 4 ug/ml measured after 18 hrs incubation by gas chromatography-mass spectrometry (GCMS) analysis (reference value: 2.59%); assay type: functional; design: scale not given: the % may be the effect or the level left; settings: dose 4 µg/ml
Candida parapsilosis = assay: Antifungal activity against Candida parapsilosis GIM 2.190 assessed as inhibition of visible growth; assay type: functional; settings: Lodderomyces parapsilosis
Cryptococcus neoformans [12] = assay: Antifungal activity against Cryptococcus neoformans CGMCC 2.3161 assessed as reduction in Eburicol at 8 ug/ml measured after 18 hrs incubation by gas chromatography-mass spectrometry (GCMS) analysis; assay type: functional; design: scale not given: the % may be the effect or the level left; settings: dose 8 µg/ml
Cell membrane [13] = assay: Induction of loss of cell membrane integrity in Candida albicans SC5314 assessed as irregular cell morphology at 16 microg/ml measured after 48 hrs incubation by transmission electron microscopy; assay type: subcellular; settings: dose 16.0 µg/ml
Cryptococcus neoformans [14] = assay: Antifungal activity against Cryptococcus neoformans CGMCC 2.3161 assessed as inhibition of visible growth; assay type: functional
Candida albicans [15] = assay: In vivo anti-resistant activity against fluconazole-resistant Candida albicans strain 17# infected in cyclophosphamide-immunosuppressed ICR mouse model assessed as reduction in fungal burden in kidney at 1 to 5 mg/kg, oral gavage for 5 days post infection; assay type: functional, organism-based; settings: dose 1-5 mg/kg, time 5.0 day
Candida albicans [16] = assay: Antifungal activity against Candida albicans SC5314 assessed as reduction in Lanosterol at 4 ug/ml measured after 18 hrs incubation by gas chromatography-mass spectrometry (GCMS) analysis; assay type: functional; design: scale not given: the % may be the effect or the level left; settings: dose 4 µg/ml
Cryptococcus neoformans [17] = assay: Antifungal activity against Cryptococcus neoformans CGMCC 2.3161 assessed as reduction in ergosterol at 8 ug/ml measured after 18 hrs incubation by gas chromatography-mass spectrometry (GCMS) analysis (reference value: 94.48%); assay type: functional; design: scale not given: the % may be the effect or the level left; settings: dose 8 µg/ml
[18] = Cytotoxicity against human SH-SY5Y cells measured after 72 hrs by MTT assay; assay type: toxicity, cell-based
Cell membrane [19] = assay: Antifungal activity against Candida albicans SC5314 assessed as reduction in Eburicol at 4 ug/ml measured after 18 hrs incubation by gas chromatography-mass spectrometry (GCMS) analysis; assay type: subcellular; design: scale not given: the % may be the effect or the level left; settings: dose 4.0 µg/ml
Aspergillus fumigatus = assay: Antifungal activity against Aspergillus fumigatus CGMCC 3.7795 assessed as inhibition of visible growth; assay type: functional
Cryptococcus neoformans [20] = assay: Antifungal activity against Cryptococcus neoformans CGMCC 2.3161 assessed as reduction in Obtusifoliol at 8 ug/ml measured after 18 hrs incubation by gas chromatography-mass spectrometry (GCMS) analysis; assay type: functional; design: scale not given: the % may be the effect or the level left; settings: dose 8 µg/ml
Nakaseomyces glabratus [21] = assay: Antifungal activity against Clinical isolate Candida glabrata assessed as inhibition of visible growth; assay type: functional
Pichia kudriavzevii [22] = assay: Fungicidal activity against Candida krusei AS 2.1045 assessed as concentration of colonies (< 5) measured after 48 hrs incubation; assay type: functional
Candida tropicalis = assay: Antifungal activity against Candida tropicalis CGMCC 2.3739 assessed as inhibition of visible growth; assay type: functional
Candida albicans [23] = assay: Antifungal activity against Candida albicans CPCC 400616 assessed as inhibition of visible growth; assay type: functional
Nakaseomyces glabratus [24] = assay: Fungicidal activity against Clinical isolate Candida glabrata assessed as concentration of colonies (< 5) measured after 48 hrs incubation; assay type: functional
[25] = Metabolic stability in human liver microsomes assessed as compound remaining measured up to 60 mins by LC-MS/MS analysis; assay type: ADME, Microsome; settings: for remaining at 1 h: liver microsomes, read-out: Activity
[26] = Metabolic stability in human liver microsomes assessed as half life by LC-MS/MS analysis; assay type: ADME, Microsome; settings: for half-life: liver microsomes
Candida albicans [27] = assay: In vivo anti-resistant activity against fluconazole-resistant Candida albicans strain 17# infected in cyclophosphamide-immunosuppressed ICR mouse model assessed as reduction in fungal burden in kidney at 5 mg/kg, oral gavage for 5 days post infection; assay type: functional, organism-based; settings: time 5.0 day, tested as the 2H-labelled form
Candida albicans [28] = assay: In vivo anti-resistant activity against fluconazole-resistant Candida albicans strain 17# infected in cyclophosphamide-immunosuppressed ICR mouse model assessed as reduction in fungal burden in kidney at 10 mg/kg, oral gavage for 5 days post infection; assay type: functional, organism-based; settings: time 5.0 day, tested as the 2H-labelled form
Cell membrane [29] = assay: Induction of loss of cell membrane integrity in Candida albicans SC5314 assessed as leakage of intracellular components into the extracellular environment at 16 microg/ml measured after 48 hrs incubation by transmission electron microscopy; assay type: subcellular; settings: dose 16.0 µg/ml
Mus musculus = assay: In vivo antifungal activity against Candida albicans SC5314 infected in ICR mouse model assessed as mouse survival at 1 mg/kg, oral gavage measured for 21 days post infection; assay type: functional, organism-based; settings: time 21.0 day, tested as the 2H-labelled form
Candida albicans [30] = assay: In vivo antifungal activity against Candida albicans SC5314 infected in cyclophosphamide-immunosuppressed ICR mouse model assessed as reduction in fungal burden in kidney at 5 mg/kg, oral gavage for 5 days post infection; assay type: functional, organism-based; settings: time 5.0 day, tested as the 2H-labelled form
Candida albicans [31] = assay: In vivo antifungal activity against Candida albicans SC5314 infected in cyclophosphamide-immunosuppressed ICR mouse model assessed as reduction in fungal burden in kidney at 1 mg/kg, oral gavage for 5 days post infection; assay type: functional, organism-based; settings: time 5.0 day, tested as the 2H-labelled form
Candida albicans [32] = assay: Antifungal activity against Candida albicans CPCC 400616 assessed as suppression of hyphal formation (inhibition of yeast to hypha transition) at 2 microg/ml measured after 4 hrs by inverted microscopy; assay type: functional, organism-based; settings: dose 2.0 µg/ml, tested as the 2H-labelled form

Structure (SMILES) | MIC80 (Candida albicans [2]) [µg/mL] | MIC80 (Pichia kudriavzevii [3]) [µg/mL] | IC50 at 72 h [6] [µM] | MIC80 (Candida parapsilosis) [µg/mL] | MIC80 (Cryptococcus neoformans [14]) [µg/mL] | MIC80 (Aspergillus fumigatus) [µg/mL] | MIC80 (Nakaseomyces glabratus [21]) [µg/mL] | MIC80 (Candida tropicalis) [µg/mL] | MIC80 (Candida albicans [23]) [µg/mL] | remaining at 1 h [25] [%] | half-life [26] [min] | further results
OC(Cn1cncn1)(Cn1cncn1)c1ccc(F)cc1F [FLUCONAZOLE] | 0.25 (≈ 0.816 µM) | 8 (≈ 26.1 µM) | > 40 | 1 (≈ 3.27 µM) | 16 (≈ 52.2 µM) | > 64 | 32 (≈ 104 µM) | 0.25 (≈ 0.816 µM) | 0.5 (≈ 1.63 µM) | – | – | Activity (Cryptococcus neoformans [1]): 3.51%; MFC (Cryptococcus neoformans [4]): > 128 µg/mL; Activity (Candida albicans [5]): 8.46%; Activity (Candida albicans [7]): 18.55%; Activity (Candida albicans [8]): 3.81%; MIC50 (Nakaseomyces glabratus [9]): 0.12 µg/mL (≈ 0.392 µM); MIC50 (Cryptococcus neoformans [10]): 32 µg/mL (≈ 104 µM); Activity (Candida albicans [11]): 13.1%; Activity (Cryptococcus neoformans [12]): 5.92%; Activity (Cell membrane [13]): Active; Activity (Candida albicans [15]): inactive; Activity (Candida albicans [16]): 18.35%; Activity (Cryptococcus neoformans [17]): 86.73%; IC50 at 72 h [18]: > 100 µM; Activity (Cell membrane [19]): 49.5%; Activity (Cryptococcus neoformans [20]): 3.85%; MFC (Pichia kudriavzevii [22]): > 128 µg/mL; MFC (Nakaseomyces glabratus [24]): > 128 µg/mL
CN(Cc1ccc(-c2ccc(Cl)cc2)cc1)CC(O)(Cn1cncn1)c1ccc(F)cc1F (stereo not given) | 0.006 (≈ 0.0128 µM) | 0.012 (≈ 0.0256 µM) | – | 0.006 (≈ 0.0128 µM) | 0.012 (≈ 0.0256 µM) | – | 0.012 (≈ 0.0256 µM) | 0.006 (≈ 0.0128 µM) | 0.006 (≈ 0.0128 µM) | – | – | Activity ([25]; microsomes, 1 h): 21.3%; t1/2 ([26]; microsomes): 9.23 min
C[C@@H](N(C)Cc1ccc(-c2ccc(OC(F)(F)F)cc2)cc1)[C@](O)(Cn1cncn1)c1ccc(F)cc1F | – | – | – | – | – | – | – | – | – | – | – | Activity (Candida albicans [27]): Active; Activity (Candida albicans [28]): Active; Compound Showed Far Superior Effect Than Fluconazole; Activity (Cell membrane [29]): Active; Activity (Mus musculus): inactive; Activity (Candida albicans [30]): Active; Activity (Cell membrane [13]; tested as the 2H-labelled form): Active; Activity (Candida albicans [31]): Active; Low Dose Antifungal Activity Weaker Than Fluconazole (Positive Control); inhibition (Candida albicans [32]): Active
CN(Cc1ccc(N2CCN(Cc3ccc(F)cc3Br)CC2)cc1)CC(O)(Cn1cncn1)c1ccc(F)cc1F (stereo not given) | 0.006 (≈ 0.00953 µM) | 0.05 (≈ 0.0794 µM) | 21 | 0.006 (≈ 0.00953 µM) | 0.012 (≈ 0.0191 µM) | 0.05 (≈ 0.0794 µM) | 0.05 (≈ 0.0794 µM) | 0.006 (≈ 0.00953 µM) | 0.006 (≈ 0.00953 µM) | 0.936 | 2.89 | –
[2H]C([2H])([2H])N(Cc1ccc(-c2ccc(Cl)c(F)c2)cc1)[C@H](C)[C@](O)(Cn1cncn1)c1ccc(F)cc1F | 0.006 (≈ 0.0119 µM) | 0.006 (≈ 0.0119 µM) | – | 0.006 (≈ 0.0119 µM) | 0.006 (≈ 0.0119 µM) | 0.006 (≈ 0.0119 µM) | 0.012 (≈ 0.0238 µM) | 0.006 (≈ 0.0119 µM) | 0.006 (≈ 0.0119 µM) | 4.91 | 14.1 | –
[2H]C([2H])([2H])N(Cc1ccc(-c2ccc(Cl)cc2)nc1)[C@H](C)[C@](O)(Cn1cncn1)c1ccc(F)cc1F | 0.006 (≈ 0.0123 µM) | 0.012 (≈ 0.0246 µM) | – | 0.006 (≈ 0.0123 µM) | 0.006 (≈ 0.0123 µM) | 0.05 (≈ 0.103 µM) | 0.012 (≈ 0.0246 µM) | 0.006 (≈ 0.0123 µM) | 0.006 (≈ 0.0123 µM) | 1.07 | 2.3 | –
